Measured values taken from patent US20180289008A1, “METHODS FOR WILDFIRE CONTROL, INVASIVE PLANT CONTROL, AND RESIDUAL CONTROL OF INVASIVE PLANTS” (priority 2017, published 2018).

Test system: invasive winter annual grass (downy brome, feral rye, Japanese brome)
Experiment: Invasive winter annual grass field efficacy studies, biomass as percent of non-treated (Sites 1 and 2 combined)
Format: in vivo, Bromus tectorum, Secale cereale, Bromus japonicus
Conditions: 1 YAT, across all five application timings, 73 and 102 g·ai·ha^−1; POST treatments with glyphosate
Method: In year 1, field experiments were conducted to compare the effectiveness of indaziflam and imazapic for long-term invasive winter annual grass control, and to evaluate the response of the native plant communities. The experiments were established at two sites on the Colorado Front Range dominated by invasive winter annual grasses. Site 1 (lat 40° 15′2″N, long 105° 12′56″W) was infested with equal amounts of downy brome and Japanese brome. Site 2 (lat 40° 43′23″N, long 104° 55′58″W) was infested with feral rye. These two sites were approximately 58 km apart. Site 1 was located on Rabbit Mountain Open Space (Boulder County). Site 2 was located on a Colorado Parks and Wildlife Area (Larimer County). Before herbicide application in July, visual estimates were made across the entire study area of percentage of living canopy cover for all species present at both sites.
Site 1 was characterized by ˜80-100% downy brome and Japanese brome canopy cover with a dense fine-fuel layer, e.g., thatch, (2 to 5 cm), and a scattered stand of co-occurring species (˜0-10% canopy cover, Table 4). […]
Biomass harvests and species richness evaluations were conducted in August (year 2 and year 3) to evaluate invasive winter annual grass control and response of co-occurring species. […] Additionally, at Site 1, species richness was calculated for each treatment as a simple estimate of biological diversity. […]

Cc1ccc2c(c1)[C@H](Nc1nc(N)nc(C(C)F)n1)[C@@H](C)C2 (mixture of isomers) [Indaziflam, N2-[(1R,2S)-2,3-dihydro-2,6-dimethyl-1H-inden-1-yl]-6-[(1RS)-1-fluoroethyl]-1,3,5-triazine-2,4-diamine]
invasive winter annual grass control: > 99%
